pIC50: −log10 of the molar value.
Tests used:
[1] = system: HIV-1 resistant to Nevirapine (N119); test: microbe, parasite or virus in culture; assay type: cell-based; settings: for pIC50: Human immunodeficiency virus 1, CEM-SS, read-out: IC50, strain resistant to Nevirapine; for SI (selectivity index): Table 3, strain resistant to Nevirapine
Experimental: The effects of the compounds were evaluated on the replication of HIV-1 (see Table 2) on CEM-SS cells (cell lines of the lymphocytic lineage) strongly infected with HIV-1 LAI as described by Moog et al. (Antiviral Research (1994), 24, 275-288). The CEM-SS and the HIV-1 resistant to Nevirapine (N119) carrying a point mutation at codon 181 of the IT, were supplied respectively by P. NARA and D. RICHMAN through the intermediary of the AIDS Research and Reference Reagent Program, Division of AIDS, NIAID, NIH (USA) (Catalogue references : No. 776 and No. 1392).
(§1) The virus production was measured by quantifying the activity of the inverse transcriptase associated with viral particles released into the culture supernatant. In short, cells were infected with 100 TCID50 for 30 minutes; after adsorption of the virus, unbound particles were removed by two washings and the cells were cultivated in the presence of different concentrations of the compounds tested for 5 days before determining the viral production. The concentration inhibiting 50% of the viral multiplication (IC50) came from the computer plot of the median effect of the dose effect results (Chou et al. Elsevier Science Publishers, Cambridge U.K. (1985), 19-28).

[2] = biological target: inverse transcriptase of HIV-1 (HIV-1 M:B_ARV2/SF2, UniProt P03369); test: enzymatic kinetic analysis of IT inhibition (Lineweaver-Burk); assay type: biochemical
Experimental: FIG. 12 is a double-reciprocal (Lineweaver-Burk) representation of the inhibition of the inverse transcriptase of HIV-1 by compound 7c with the poly C-oligo dG as a matrix-primer couple and dGPT as substrate.
FIG. 13 is a double-reciprocal representation, similar to […], in which the poly A-oligo dT is used as a matrix-primer couple and dTTP as substrate.
(§2) Incubation was carried out at 37° C. for 10 minutes in the presence of various matrix-primers.
(§3) a) Poly C-oligo dG: the reaction mixture contained a final volume of 0.05 ml, Tris-HCl 50 mM pH 8.0, MgCl2 5 mM, dithiothreitol 4 mM, 0.48 A260 /ml of poly C-oligo dG (5:1), 1.0 μCi of [^3 H]dGTP (28 Ci/mmole), dGTP 2 μM, KCl 80 mM, 1 μg of bovine serum albumin and IT 20-50 nM.
(§4) b) Poly A-oligo dT: the same conditions as in a), except that 0.48 A260 /ml of poly A-oligo dT (5:1), 0.5 μCi of [^3 H]dTTP (46 Ci/mmole), dTTP 20 μM were used.
(§5) The reactions were stopped by adding in the cold 1 ml of 10% trichloroacetic acid plus sodium pyrophosphate 0.1 M. The precipitates were filtered through nitrocellulose membranes, washed with 2% trichloroacetic acid, dried and counted in a PPO/POPOP/toluene scintillation mixture.

IT of recombinant HIV-1 = biological target: T1, IT of recombinant HIV-1 (Human immunodeficiency virus type 1 group M subtype B, UniProt P03369); test: inhibition of the inverse transcriptase of recombinant HIV-1; assay type: biochemical
T1 construct: purify the IT enzyme of the recombinant HIV-1; made in house; host or cells: yeast cells transformed with the pAB 24/IT-4 vector
Experimental: Yeast cells transformed with the pAB 24/IT-4 vector were used to purify the IT enzyme of the recombinant HIV-1 as described by Sallafranque-Andreola et al. (1989 Eur. J. Biochem. 184, 364-374).
as §2, §3, §4, §5
(§6) All the compounds were dissolved in dimethyl#sulphoxide (DMSO). The test samples were prepared in the presence of the same final concentration of DMSO. IC50 is the concentration required to inhibit the activity of the IT of the recombinant HIV-1 by 50%.

IT of HIV-2 = IT of HIV-2 (Human immunodeficiency virus type 2 (ISOLATE ROD), UniProt P04584); test: inhibition of the inverse transcriptase of HIV-2; assay type: biochemical; settings: at concentrations at which the IT of HIV-1 was well inhibited (FIG. 9)
Experimental: The system for the expression of the IT of HIV-2 in E.coli (B. Muller et al. (1991 J. Biol. Chem. 266, 14708-14713) was provided by Dr. R. Goody. The IT of the HIV-2 was purified in the same way as the IT of the HIV-1.
as §2, §3, §4, §5, §6

HIV-1 LAI = test: anti-HIV-1 activity: replication of HIV-1 LAI on CEM-SS cells; assay type: cell-based; settings: Table 2, HIV-1 LAI, CEM-SS cells; for pIC50: Human immunodeficiency virus 1, 120 h, 5 days, read-out: IC50, anti-HIV-1 activity
Experimental: The CEM-SS and the HIV-1 resistant to Nevirapine (N119) carrying a point mutation at codon 181 of the IT, were supplied respectively by P. NARA and D. RICHMAN through the intermediary of the AIDS Research and Reference Reagent Program, Division of AIDS, NIAID, NIH (USA) (Catalogue references : No. 776 and No. 1392).
as §1

[3] = cytotoxicity on non-infected cells (MTT test); assay type: cell-based; settings: human; Table 2; non-infected CEM-SS cells, MTT, 5 days
Experimental: (§7) In parallel experiments, the cytotoxicity of the molecules was measured on non-infected cells, after an incubation of 5 days in the presence of these molecules, by using a […] titration (MTT test) based on the ability of the mitochondrial dehydrogenases of the living cells to reduce 3-(4,5-dimethylthiazol-2-yl)-2,5-diphenyltetrazolium bromide in formazan (Mosmann et al. J. Immunol. Methods ([…]), 65, 55-63). The concentration cytotoxic at 50% (CC50) is the concentration at which the DO540 has been reduced to half and is calculated by using the program mentioned above.

CEM-SS cells = test: cytotoxicity on non-infected cells (MTT test); assay type: cell-based; settings: Table 3; non-infected cells, MTT, 5 days
Experimental: as §7

Chain of IT of HIV-2 (P04584 613-1171): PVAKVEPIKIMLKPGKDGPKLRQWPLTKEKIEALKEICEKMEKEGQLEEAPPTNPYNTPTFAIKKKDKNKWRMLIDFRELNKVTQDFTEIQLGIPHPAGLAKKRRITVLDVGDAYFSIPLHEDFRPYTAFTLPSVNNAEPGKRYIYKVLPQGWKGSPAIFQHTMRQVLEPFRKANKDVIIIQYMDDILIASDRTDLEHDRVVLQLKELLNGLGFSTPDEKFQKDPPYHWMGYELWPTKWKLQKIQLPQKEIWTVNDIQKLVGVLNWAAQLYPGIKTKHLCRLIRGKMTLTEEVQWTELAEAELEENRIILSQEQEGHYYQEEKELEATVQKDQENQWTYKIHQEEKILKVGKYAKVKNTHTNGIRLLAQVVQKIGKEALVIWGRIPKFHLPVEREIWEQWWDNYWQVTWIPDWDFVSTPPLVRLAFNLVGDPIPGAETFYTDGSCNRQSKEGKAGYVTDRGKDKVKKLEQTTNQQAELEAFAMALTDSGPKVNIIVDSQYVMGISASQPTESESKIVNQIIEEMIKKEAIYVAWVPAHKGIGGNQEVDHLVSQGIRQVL

Row | Compound | pIC50 [1] | SI (selectivity index) [1] | type of inhibition ([2]; as regards dGTP substrate, poly C-oligo dG matrix-primer (FIG. 12)) | type of inhibition ([2]; poly A-oligo dT matrix-primer, dTTP substrate (FIG. 13)) | pIC50 (IT of recombinant HIV-1) | effect on activity of the IT of HIV-1 in HIV-1/HIV-2 comparison (IT of recombinant HIV-1; FIG. 9) | IT inhibition according to matrix-primer couple (IT of recombinant HIV-1; poly C-oligo dG compared with poly A-oligo dT (FIG. 9)) | effect on activity of the IT of HIV-2 (IT of HIV-2) | pIC50 (HIV-1 LAI) | SI (selectivity index) (HIV-1 LAI) | CC50 at 120 h [3] [nM] | CC50 (CEM-SS cells) [nM]
1 | CCc1c(C)nc(O)c(N)c1Sc1cc(C)cc(C)c1 [Compound 8c, 3-amino-5-ethyl-6-methyl-4-(3', 5'-dimethylphenyl)thio-pyridin-2(1H)-one] | 5.68 | > 4 | non-competitive | competitive | 7.82 | well inhibited | gave the same result | not affected | 7.85 | > 714 | > 10000 | > 10000
2 | CC(=O)Nc1c(Sc2cc(C)cc(C)c2)c(C)c[nH]c1=O [Compound 11b, 3-acetamido-5-methyl-4-(3', 5'-dimethylphenyl)thio-pyridin-2(1H)-one] | < 4.00 |  |  |  | < 5.40 |  |  |  | 7.17 | > 1492 | > 100000 | > 100000
3 | CCOC(=O)c1c(Sc2cc(C)cc(C)c2)c(CC)c(C)[nH]c1=O [Compound 15, 5-ethyl-6-methyl-3-carbethoxy-4-(3', 5'-dimethylphenyl)thio-pyridin-2(1H)-one] | 5.66 | > 4.5 |  |  | 6.22 |  |  |  | 8.52 | > 3333 | > 10000 | > 10000

Reference: patent US6015820A, “4-Aryl-thio-pyridin-2(1H)-ones, medicines containing them and their uses in the treatment of illnesses linked to HIV” (priority 1995, dated 2000)
